Test results published in patent US9896447B2, “TrkA kinase inhibitors, compositions and methods thereof” (MERCK SHARP & DOHME CORP., priority 2013, dated 2018).

Target: TrkA receptor (Homo sapiens (Human), UniProt P04629)
Assay: DiscoverX PathHunter TrkA functional assay (U2OS cells, NGF stimulated)
Assay type: cell-based
Conditions: U2OS cells expressing TrkA-Prolink and Shc1-EA; compound 1 hour, then EC80 of NGF for 3 hours; luminescence
Description: TrkA functional activity was measured using a DiscoverX PathHunter assay. In this assay, U2OS cells are express TrkA receptor as a fusion with the weakly complementing fragment of B-galactosidase, which DiscoverX calls “Prolink (PK)”; additionally, Shc1 is fused with a larger fragment, which is called “Enzyme Acceptor (EA)”. Activation of the TrkA receptor, upon NGF addition, results in the kinase domain being phosphorylated, resulting in subsequent recruitment of Shc1-EA protein. That recruitment results in an active B-galactosidase enzyme that is detected by addition of a chemiluminescent substrate.
All reagents were purchased from DiscoverX, except for the receptor agonists (NGF, BDNF, NT3) which were purchased from Peprotech. Cells were expanded and frozen into cryovials (TrkA p75 @ passage 13, 1.5×10^7 cells/vial; TrkC p75 @ passage 11, 1.5×10^7 cells/vial in InVitrogen Recovery Cell Freezing media), and stored in the vapor phase of liquid nitrogen, and thawed immediately before use. Thawed cells were added to a 384-well plate (BD Falcon 384-well white/clear, TC surface 120 uL assay plates (353963), 20 uL of 0.375e6 cells/mL=>7500 cells/well), and allowed to incubate overnight. Compound (10 mM starting dose: 202.5 nL compound yielding 0.81% DMSO final in total assay volume and starting doses 81 uM) was added the following morning and allowed to incubate on cells for 1 hour. Then, 5 uL EC80 of agonist (NGF for TrkA; BDNF for TrkB; NT3 for TrkC) was added and allowed to incubate for 3 hours at room temperature. DiscoverX PathHunter detection reagent is added (12 uL to plate and components diluted in parts as per kit instructions) and the plate is further incubated for 1 hour in the dark. The plate is read via luminescence on the Perkin Elmer Envision.

Chain of TrkA receptor (P04629 33-796): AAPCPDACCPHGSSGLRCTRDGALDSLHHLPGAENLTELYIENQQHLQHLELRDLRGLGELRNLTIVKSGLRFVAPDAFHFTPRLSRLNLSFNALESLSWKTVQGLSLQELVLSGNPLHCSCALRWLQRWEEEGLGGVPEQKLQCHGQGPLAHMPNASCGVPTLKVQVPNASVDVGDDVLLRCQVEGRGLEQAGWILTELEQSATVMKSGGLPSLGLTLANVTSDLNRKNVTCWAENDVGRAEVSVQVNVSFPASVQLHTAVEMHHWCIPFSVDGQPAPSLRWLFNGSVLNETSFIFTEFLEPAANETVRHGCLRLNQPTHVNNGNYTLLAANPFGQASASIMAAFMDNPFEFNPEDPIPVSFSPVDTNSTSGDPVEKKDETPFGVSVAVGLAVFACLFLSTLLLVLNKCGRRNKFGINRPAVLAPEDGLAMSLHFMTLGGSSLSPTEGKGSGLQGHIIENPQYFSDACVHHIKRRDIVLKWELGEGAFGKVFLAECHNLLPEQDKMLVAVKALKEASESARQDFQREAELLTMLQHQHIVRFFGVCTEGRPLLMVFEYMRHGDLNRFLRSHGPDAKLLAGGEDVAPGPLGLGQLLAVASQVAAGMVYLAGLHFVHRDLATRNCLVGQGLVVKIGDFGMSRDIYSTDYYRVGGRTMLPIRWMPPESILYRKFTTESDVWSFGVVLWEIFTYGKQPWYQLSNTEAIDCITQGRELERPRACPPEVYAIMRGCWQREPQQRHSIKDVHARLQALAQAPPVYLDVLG

Structure (SMILES) | IC50
Cn1ncc(NC(=O)NCc2ccccc2C(F)(F)F)c1-c1ccccc1 [Compound 42, 1-(1-methyl-5-phenyl-1H-pyrazol-4-yl)-3-[2-(trifluoromethyl)benzyl]urea] | 1400 nM
Cc1ncc(NC(=O)NCc2cc(F)ccc2C(F)(F)F)c(-c2ccccc2)n1 [Compound 43, 1-[5-fluoro-2-(trifluoromethyl)benzyl]-3-(2-methyl-4-phenylpyrimidin-5-yl)urea] | 1400 nM
O=C(NCc1ccccc1SC(F)(F)F)Nc1ccnn1-c1ccccc1 [Compound 44, 1-(1-phenyl-1H-pyrazol-5-yl)-3-{2-[(trifluoromethyl)sulfanyl]benzyl}urea] | 420 nM
Cc1onc(-c2ccccc2)c1NC(=O)NCc1ccccc1SC(F)(F)F [Compound 45, 1-(5-methyl-3-phenylisoxazol-4-yl)-3-{2-[(trifluoromethyl)sulfanyl]benzyl}urea] | 420 nM
Cn1ncc(NC(=O)NCc2ccccc2OC(F)(F)F)c1-c1ccccc1 [Compound 46, 1-(1-methyl-5-phenyl-1H-pyrazol-4-yl)-3-[2-(trifluoromethoxy)benzyl]urea] | 1600 nM
